≈ marks a conversion by molar mass, not a printed value.
Legend:
Format in all cases: cell-based
[1] = tested on: Pseudomonas aeruginosa UC-12120; experiment: minimum inhibitory concentration (MIC) testing according to CLSI guidelines, Pseudomonas aeruginosa; details: UC-12120, wild-type, labeled as 1091-05, overnight incubation, lower of duplicate values; for MIC: Pseudomonas aeruginosa, UC12120, read-out: AB-MBT: Pseudomonas aeruginosa 1091-05: MIC (MstRcn)
In short: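 Broth dilution MIC per CLSI guidelines against wild-type P. aeruginosa UC-12120 (1091-05), using 2-fold drug dilutions and overnight incubation with visual reading of lowest growth-inhibiting concentration. Tested in duplicate; lower value reported when within 2-fold, with control organisms and reference compounds for quality control.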

[2] = tested on: Klebsiella pneumoniae 1000-02; experiment: minimum inhibitory concentration (MIC) testing according to CLSI guidelines, Klebsiella pneumoniae; details: ciprofloxacin-resistant, ESBL-expressing clinical isolate 1000-02, overnight incubation, lower of duplicate values; for MIC: Klebsiella pneumoniae, read-out: AB-MBT: Klebsiella pneumoniae 1000-02: MIC (MstRcnt)
In short: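 MIC by CLSI broth dilution with 2-fold concentration steps and overnight incubation; lowest concentration visibly inhibiting growth versus drug-free control. Ciprofloxacin-resistant, ESBL-expressing clinical isolate 1000-02. Run in duplicate, lower value reported when within 2-fold, with QC organisms and reference compounds per run.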

[3] = tested on: Acinetobacter baumannii/haemolyticus AB-3167; experiment: minimum inhibitory concentration (MIC) testing according to CLSI guidelines, Acinetobacter; details: multidrug-resistant clinical isolate AB-3167, overnight incubation, lower of duplicate values; for MIC: Acinetobacter baumannii, read-out: AB-MBT: Acinetobacter baumanii AB-3167: MIC (MstRcnt)
In short: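 Broth dilution MIC per CLSI M7-A8/M100-S20 against multidrug-resistant clinical isolate AB-3167, using 2-fold drug dilutions and overnight incubation; MIC is the lowest concentration without visible growth. Duplicates within 2-fold reported as the lower value, with control strains and reference compounds in range.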

Compound	MIC [1]	MIC [2]	MIC [3]	AB-MBT: Pseudomonas aeruginosa 1091-05: MIC (MstRcn) [1]	AB-MBT: Klebsiella pneumoniae 1000-02: MIC (MstRcnt) [2]	AB-MBT: Acinetobacter baumanii AB-3167: MIC (MstRcnt) [3]
CC(C)(O/N=C(\C(=O)N[C@@H]1C(=O)N(S(=O)(=O)O)[C@@H]1CNS(=O)(=O)c1ccc(C(=O)NCc2cc(=O)c(O)cn2O)cc1)c1csc(N)n1)C(=O)O [Example 48, 2-({[(1Z)-1-(2-amino-1,3-thiazol-4-yl)-2-{[(2R,3S)-2-({[(4-{[(1,5-dihydroxy-4-oxo-1,4-dihydropyridin-2-yl)methyl]carbamoyl}phenyl)sulfonyl]amino}methyl)-4-oxo-1-sulfoazetidin-3-yl]amino}-2-oxoethylidene]amino}oxy)-2-methylpropanoic acid]	1 µg/mL (≈ 1.29 µM)	1 µg/mL (≈ 1.29 µM)	2 µg/mL (≈ 2.59 µM)	–	–	–
C[C@@H](NC(=O)NCc1cc(=O)c(O)cn1O)C(=O)NC[C@@H]1[C@H](NC(=O)/C(=N\OC(C)(C)C(=O)O)c2csc(N)n2)C(=O)N1S(=O)(=O)O [Example 49, 2-({[(1Z)-1-(2-amino-1,3-thiazol-4-yl)-2-{[(2R,3S)-2-{[(N-{[(1,5-dihydroxy-4-oxo-1,4-dihydropyridin-2-yl)methyl]carbamoyl}-D-alanyl)amino]methyl}-4-oxo-1-sulfoazetidin-3-yl]amino}-2-oxoethylidene]amino}oxy)-2-methylpropanoic acid]	0.5 µg/mL (≈ 0.711 µM)	0.5 µg/mL (≈ 0.711 µM)	0.5 µg/mL (≈ 0.711 µM)	–	–	–
CC(C)(O/N=C(\C(=O)N[C@@H]1C(=O)N(S(=O)(=O)O)[C@@H]1CNc1cc(C(=O)NCc2cc(=O)c(O)cn2O)ccn1)c1csc(N)n1)C(=O)O [Example 50, 2-({[(1Z)-1-(2-amino-1,3-thiazol-4-yl)-2-{[(2R,3S)-2-{[(4-{[(1,5-dihydroxy-4-oxo-1,4-dihydropyridin-2-yl)methyl]carbamoyl}pyridin-2-yl)amino]methyl}-4-oxo-1-sulfoazetidin-3-yl]amino}-2-oxoethylidene]amino}oxy)-2-methylpropanoic acid]	0.125 µg/mL (≈ 0.176 µM)	0.5 µg/mL (≈ 0.705 µM)	0.5 µg/mL (≈ 0.705 µM)	–	–	–
CC(C)(O/N=C(\C(=O)N[C@@H]1C(=O)N(S(=O)(=O)O)[C@@H]1CNC(=O)c1ccc(CNC(=O)c2cc(O)c(O)cn2)cc1)c1csc(N)n1)C(=O)O [Example 51, 2-({[(1Z)-1-(2-amino-1,3-thiazol-4-yl)-2-{[(2R,3S)-2-({[4-({[(4,5-dihydroxypyridin-2-yl)carbonyl]amino}methyl)benzoyl]amino}methyl)-4-oxo-1-sulfoazetidin-3-yl]amino}-2-oxoethylidene]amino}oxy)-2-methylpropanoic acid]	0.125 µg/mL (≈ 0.173 µM)	2 µg/mL (≈ 2.78 µM)	1 µg/mL (≈ 1.39 µM)	–	–	–
CC(C)(O/N=C(\C(=O)N[C@@H]1C(=O)N(S(=O)(=O)O)[C@@H]1CNC(=O)c1ccc(NC(=O)c2cc(=O)c(O)cn2O)cc1)c1csc(N)n1)C(=O)O [Example 52, 2-({[(1Z)-1-(2-amino-1,3-thiazol-4-yl)-2-{[(2R,3S)-2-{[(4-{[(1,5-dihydroxy-4-oxo-1,4-dihydropyridin-2-yl)carbonyl]amino}benzoyl)amino]methyl}-4-oxo-1-sulfoazetidin-3-yl]amino}-2-oxoethylidene]amino}oxy)-2-methylpropanoic acid]	0.5 µg/mL (≈ 0.692 µM)	1 µg/mL (≈ 1.38 µM)	0.5 µg/mL (≈ 0.692 µM)	–	–	–
CC(C)(O/N=C(\C(=O)N[C@@H]1C(=O)N(S(=O)(=O)O)[C@@H]1CNC(=O)CNC(=O)NCc1cc(=O)c(O)cn1O)c1csc(N)n1)C(=O)O [Example 53, 2-({[(1Z)-1-(2-amino-1,3-thiazol-4-yl)-2-{[(2R,3S)-2-{[(N-{[(1,5-dihydroxy-4-oxo-1,4-dihydropyridin-2-yl)methyl]carbamoyl}glycyl)amino]methyl}-4-oxo-1-sulfoazetidin-3-yl]amino}-2-oxoethylidene]amino}oxy)-2-methylpropanoic acid]	0.25 µg/mL (≈ 0.363 µM)	1 µg/mL (≈ 1.45 µM)	0.25 µg/mL (≈ 0.363 µM)	–	–	–
C[C@H](NC(=O)c1cc(=O)c(O)cn1O)C(=O)NC[C@@H]1[C@H](NC(=O)/C(=N\OC(C)(C)C(=O)O)c2csc(N)n2)C(=O)N1S(=O)(=O)O [Example 54, 2-({[(1Z)-1-(2-amino-1,3-thiazol-4-yl)-2-({(2R,3S)-2-[({N-[(1,5-dihydroxy-4-oxo-1,4-dihydropyridin-2-yl)carbonyl]-L-alanyl}amino)methyl]-4-oxo-1-sulfoazetidin-3-yl}amino)-2-oxoethylidene]amino}oxy)-2-methylpropanoic acid]	0.25 µg/mL (≈ 0.371 µM)	1 µg/mL (≈ 1.48 µM)	0.25 µg/mL (≈ 0.371 µM)	–	–	–
C[C@H](NC(=O)NCc1cc(=O)c(O)cn1O)C(=O)NC[C@@H]1[C@H](NC(=O)/C(=N\OC(C)(C)C(=O)O)c2csc(N)n2)C(=O)N1S(=O)(=O)O [Example 55, 2-({[(1Z)-1-(2-amino-1,3-thiazol-4-yl)-2-{[(2R,3S)-2-{[(N-{[(1,5-dihydroxy-4-oxo-1,4-dihydropyridin-2-yl)methyl]carbamoyl}-L-alanyl)amino]methyl}-4-oxo-1-sulfoazetidin-3-yl]amino}-2-oxoethylidene]amino}oxy)-2-methylpropanoic acid]	0.25 µg/mL (≈ 0.355 µM)	2 µg/mL (≈ 2.84 µM)	0.5 µg/mL (≈ 0.711 µM)	–	–	–
CC(C)(O/N=C(\C(=O)N[C@@H]1C(=O)N(S(=O)(=O)O)[C@@H]1CNC(=O)Cc1cccc(NC(=O)c2cc(=O)c(O)cn2O)c1)c1csc(N)n1)C(=O)O [Example 56, 2-({[(1Z)-1-(2-amino-1,3-thiazol-4-yl)-2-{[(2R,3S)-2-({[(3-{[(1,5-dihydroxy-4-oxo-1,4-dihydropyridin-2-yl)carbonyl]amino}phenyl)acetyl]amino}methyl)-4-oxo-1-sulfoazetidin-3-yl]amino}-2-oxoethylidene]amino}oxy)-2-methylpropanoic acid]	0.5 µg/mL (≈ 0.679 µM)	1 µg/mL (≈ 1.36 µM)	1 µg/mL (≈ 1.36 µM)	–	–	–
CC(C)(O/N=C(\C(=O)N[C@@H]1C(=O)N(S(=O)(=O)O)[C@@H]1CNC(=O)Nc1cc(=O)c(O)c[nH]1)c1csc(N)n1)C(=O)O [Example 57, 2-({[(1Z)-1-(2-amino-1,3-thiazol-4-yl)-2-{[(2R,3S)-2-({[(5-hydroxy-4-oxo-1,4-dihydropyridin-2-yl)carbamoyl]amino}methyl)-4-oxo-1-sulfoazetidin-3-yl]amino}-2-oxoethylidene]amino}oxy)-2-methylpropanoic acid]	2 µg/mL (≈ 3.32 µM)	4 µg/mL (≈ 6.64 µM)	1 µg/mL (≈ 1.66 µM)	–	–	–
Nc1nc(/C(=N/OC2(C(=O)O)CCC2)C(=O)N[C@@H]2C(=O)N(S(=O)(=O)O)[C@@H]2CNC(=O)c2cc(=O)c(O)cn2O)cs1 [Example 58, 1-({[(1Z)-1-(2-amino-1,3-thiazol-4-yl)-2-{[(2R,3S)-2-({[(1,5-dihydroxy-4-oxo-1,4-dihydropyridin-2-yl)carbonyl]amino}methyl)-4-oxo-1-sulfoazetidin-3-yl]amino}-2-oxoethylidene]amino}oxy)cyclobutanecarboxylic acid]	0.25 µg/mL (≈ 0.406 µM)	0.06 µg/mL (≈ 0.0975 µM)	0.25 µg/mL (≈ 0.406 µM)	–	–	–
Nc1nc(/C(=N/OC2(C(=O)O)CCC2)C(=O)N[C@@H]2C(=O)N(S(=O)(=O)O)[C@@H]2CNC(=O)c2cccc(S(=O)(=O)NCc3cc(=O)c(O)cn3O)c2)cs1 [Example 59]	–	–	–	0.250 µg/mL	0.250 µg/mL	0.250 µg/mL
Nc1nc(/C(=N/OC2(C(=O)O)CCC2)C(=O)N[C@@H]2C(=O)N(S(=O)(=O)O)[C@@H]2CNC(=O)CCC(=O)NCc2cc(=O)c(O)cn2O)cs1 [Example 60, 1-({[(1Z)-1-(2-amino-1,3-thiazol-4-yl)-2-{[(2R,3S)-2-{[(4-{[(1,5-dihydroxy-4-oxo-1,4-dihydropyridin-2-yl)methyl]amino}-4-oxobutanoyl)amino]methyl}-4-oxo-1-sulfoazetidin-3-yl]amino}-2-oxoethylidene]amino}oxy)cyclobutanecarboxylic acid]	0.125 µg/mL (≈ 0.178 µM)	0.5 µg/mL (≈ 0.714 µM)	0.25 µg/mL (≈ 0.357 µM)	–	–	–
Nc1nc(/C(=N/OC2(C(=O)O)CCC2)C(=O)N[C@@H]2C(=O)N(S(=O)(=O)O)[C@@H]2CNC(=O)c2ccc(CNC(=O)c3cc(O)c(O)cn3)cc2)cs1 [Example 61, 1-({[(1Z)-1-(2-amino-1,3-thiazol-4-yl)-2-{[(2R,3S)-2-({[4-({[(4,5-dihydroxypyridin-2-yl)carbonyl]amino}methyl)benzoyl]amino}methyl)-4-oxo-1-sulfoazetidin-3-yl]amino}-2-oxoethylidene]amino}oxy)cyclobutanecarboxylic acid]	32 µg/mL (≈ 43.7 µM)	2 µg/mL (≈ 2.73 µM)	1 µg/mL (≈ 1.36 µM)	–	–	–
Nc1nc(/C(=N/OC2(C(=O)O)CCC2)C(=O)N[C@@H]2C(=O)N(S(=O)(=O)O)[C@@H]2CNC(=O)c2ccc(CNC(=O)c3cc(=O)c(O)cn3O)cc2)cs1 [Example 62, 1-({[(1Z)-1-(2-amino-1,3-thiazol-4-yl)-2-{[(2R,3S)-2-({[4-({[(1,5-dihydroxy-4-oxo-1,4-dihydropyridin-2-yl)carbonyl]amino}methyl)benzoyl]amino}methyl)-4-oxo-1-sulfoazetidin-3-yl]amino}-2-oxoethylidene]amino}oxy)cyclobutanecarboxylic acid]	2 µg/mL (≈ 2.67 µM)	1 µg/mL (≈ 1.34 µM)	0.5 µg/mL (≈ 0.668 µM)	–	–	–
